From patent publication US9260382B2, “Methods of reducing virulence in bacteria” (priority 2010, dated 2016)
“Also recorded” adds a separate entry of the source.

Assays:
hrpA promoter (T3SS) [1] = assay: GFP reporter plasmid phrpA, flow cytometry (FACS) of hrpA promoter activity; format: cell-based, Dickeya dadantii 3937; conditions: for mean fluorescence intensity of GFP, hrpA expression: D. dadantii 3937 (phrpA), MM + 100 μM compound; for inhibitory activity on T3SS gene (hrpA) expression, in words: D. dadantii 3937, reporter plasmid phrpA, 100 μM; for minimal effective concentration: Dickeya dadantii, read-out: minimal inhibitory concentration on hrpA expression (concentration showing inhibitory effect); for Mean Fluorescence Intensity of GFP (hrpA, phrpA): Trial 2, MM supplemented with compound at 100 μM
Method: (§1) FACS analysis of promoter activity of dspE, hrpA, hrpL, hrpN, and hrpS was carried out as described (Peng et al., 2006). Briefly, the wild-type Ech3937 and the mutant strains carrying the promoter reporter plasmid were grown on LB broth at 28° C. overnight and transferred to appropriate media. For FACS analysis, samples were collected by centrifugation, washed with 1× phosphate buffer saline (PBS) at 13,000 rpm for 1 min, and re-suspended in 1×PBS to ca 10^6 CFU/ml prior to being run in a FACS Calibur flow cytometer (BD Biosciences, CA). Three replicates were performed for each treatment.
To identify potential compounds that repress activation of T3SS, analogs and isomers of TCA and intermediates of salicylic acid and phenypropanoid biosynthesis pathways in plants were further screened for their effect on Ech3937 hrpA expression by flow cytometry (Table 9). A green fluorescent protein (GFP) reporter plasmid phrpA (pProbe-AT derivative with PCR fragment containing hrpA promoter region) was constructed, resulting in a transcriptional fusion of hrpA promoter with GFP gene. Bacterial cells containing phrpA plasmid were grown in MM supplemented with 0.1 mM of each compound. GFP intensity, which is a measurement of hrpA promoter activity, was measured by flow cytometry.
hrpA encodes the T3SS pilus required for protein translocation into plant cells. To test for an inhibitory effect on T3SS hrpA expression, the reporter plasmid phrpA was used to measure the effects of these compounds on hrpA expression. The reporter plasmid phrpA encodes a transcriptional fusion of the hrpA promoter controlling expression of green fluorescent protein (gfp). 50 μL of bacterial suspension of D. dadantii 3937 carrying the hrpA reporter (optical density at 600 nm OD600=1.0) was used as the initial inoculum and added to 5 mL of MM or MM supplemented with 100 μM of one of the compounds. The expression level of hrpA of these bacterial cells was measured by measuring GFP intensity of gated populations of the bacterial cells by flow cytometry and analyzed with Cell Quest software (BD Biosciences, San Jose, Calif.). The fluorescence intensities were an average GFP fluorescence intensity of total bacterial cells. Compounds were assayed two different times (12 and 24 h of bacterial growth) with T3SS minimal media (MM) as the control treatment for each set of experiment. Values presented in Table 14 are mean fluorescence intensity of GFP, representative of two experiments, presented as the average of three replicates with standard deviation (SD).

hrpS promoter = assay: GFP reporter plasmid phrpS, flow cytometry of hrpS promoter activity; format: cell-based, Dickeya dadantii 3937; conditions: reporter plasmid phrpS
Method: as §1
To test for an inhibitory effect on T3SS hrpS expression, the reporter plasmid phrpS was used to measure the effects of these compounds on hrpA expression.

hrpA promoter (T3SS) [2] = assay: hrpA promoter-probe phrpA in Erwinia amylovora 273, flow cytometry; format: cell-based; conditions: Ea273 (phrpA), HIM + 100 μM compound
Method: Wild-type Erwinia amylovora 273 was used in this study. The promoter-probe plasmid phrpA was constructed as follows. The hrpA promoter region of Erwinia amylovora 273 was amplified and cloned into pPROBE-NT to produce PhrpA. Plasmid PhrpA was electroporated into Erwinia amylovora 273. Expression of hrpA was analyzed using a FACS Calibur flow cytometer (BD Biosciences, CA). Wild-type Erwinia amylovora 273 containing phrpA was cultured in a hrp-inducing medium (HIM) containing dimethyl sulfoxide (DMSO; solvent of chemical compounds), or HIM supplemented with 100 μM of each compound, and promoter activity was assessed at 6 h and 9 h by measuring GFP intensity using flow cytometry (Table 19).

exoS promoter (T3SS) = assay: exoS promoter-gfp reporter pATexoS, flow cytometry; format: cell-based, P. aeruginosa PA01; conditions: for effect on exoS promoter activity, in words: screening for T3SS inhibitors; for Fraction of untreated control (exoS expression): structure-activity table, concentration not given; for Actual readings of flow cytometry (exoS expression): 6 h, LB with 200 mM NaCl, 10 mM NTA
Method: To identify T3SS inhibitors of PA01, a promoter-probe vector pPROBE-AT containing the promoterless green fluorescent protein (gfp) gene was used to construct an exoS promoter-gfp plasmid reporter, pATexoS. PA01 containing pATexoS was cultured in T3SS-inducing medium containing dimethyl sulfoxide (DMSO; solvent of chemical compounds), or supplemented with 250 μM of each compound, and promoter activity was assessed at 6 h by measuring GFP intensity using flow cytometry. 101 compounds (58 synthesized and 43 commercially available) were screened. Compounds 027, 032, 101, and 149 repressed exoS expression at the final concentration of 250 μM by at least one standard deviation below the sample average (Z score≦−1) (FIG. 37 A-E). Z score (or standard score) indicates how many standard deviations an observation or datum is above or below the mean [z=(x−μ)/σ, where x is a raw score to be standardized, μ is the mean of the population, and σ is the standard deviation of the population].
To determine the effective concentration of compounds, the dose-dependent effect of potential inhibitors on exoS expression and bacterial growth were tested. P. aeruginosa cells carrying pATexoS were pre-cultured in LB supplemented with 200 mM NaCl and transferred to fresh LB with 200 mM NaCl, 10 mM NTA, and various concentrations of compounds (20, 50, 100, and 250 μM) or DMSO for 6 h. […] At 50 μM dosage, both 027 and 101 inhibited exoS expression at similar levels, and this inhibitory effect increased as compound concentration increased (FIG. 38A and Table 17). […] These inhibitions/inductions of exoS expression are caused by the shifting bacterial population between low-state expression cells and high-state expression cells (FIG. 40).

| Structure (SMILES) | mean fluorescence intensity of GFP, hrpA expression (hrpA promoter (T3SS) [1]; 12 h) | mean fluorescence intensity of GFP, hrpA expression (hrpA promoter (T3SS) [1]; 24 h) | inhibitory activity on T3SS gene (hrpA) expression, in words (hrpA promoter (T3SS) [1]) | minimal effective concentration (hrpA promoter (T3SS) [1]) | Mean Fluorescence Intensity of GFP (hrpA, phrpA) (hrpA promoter (T3SS) [1]) | inhibitory effect on T3SS hrpS expression, in words (hrpS promoter) | Avg MFI ± SD, hrpA expression (hrpA promoter (T3SS) [2]; 6 h) | Avg MFI ± SD, hrpA expression (hrpA promoter (T3SS) [2]; 9 h) | effect on exoS promoter activity, in words (exoS promoter (T3SS)) | Fraction of untreated control (exoS expression) (exoS promoter (T3SS)) | Actual readings of flow cytometry (exoS expression) (exoS promoter (T3SS); 20 uM) | Actual readings of flow cytometry (exoS expression) (exoS promoter (T3SS); 50 uM) | Actual readings of flow cytometry (exoS expression) (exoS promoter (T3SS); 100 uM) | Actual readings of flow cytometry (exoS expression) (exoS promoter (T3SS); 250 uM) |
| --- | --- | --- | --- | --- | --- | --- | --- | --- | --- | --- | --- | --- | --- | --- |
| O=C(/C=C/c1c[nH]c2ccccc12)NO [Compound 127, trans-3-Indoleacrylohydroxamic acid] | 21.0 ± 3.0 | 35.1 ± 3.0 | showed inhibitory effect; also recorded: moderate potency | 100 µM | 26.2 ± 2.6 | inhibited hrpS | 91.4 ± 4.9 | 102.7 ± 0.5 | – | – | – | – | – | – |
| O=C(/C=C/c1ccccc1)NO [Compound 132, trans-Cinnamohydroxamic acid] | – | – | – | – | – | – | 145.7 ± 1.2 | 147.8 ± 4.2 | little or no effect on exoS promoter activity | 1.53 ± 0.19 | – | – | – | – |
| COC(=O)/C=C/c1ccc(O)cc1 [Compound 101, Methyl para-coumate] | 17.5 ± 0.7 | 19.9 ± 0.5 | – | 100 µM | – | – | 1443.4 ± 49.4 | 1227.8 ± 41.6 | – | 0.65 ± 0.03 | 122.82 ± 2.89 | 106.83 ± 3.09 | 100.10 ± 1.33 | 81.88 ± 2.41 |
| CCOS(=O)(=O)/C=C/c1ccc(OC)cc1 [Compound 120, Ethyl trans-2-(4-methoxyphenyl)-ethenylsulfonate] | 49.9 ± 2.6 | 68.6 ± 6.0 | did not exhibit any activity | – | – | – | 371.5 ± 29.7 | 492.0 ± 37.6 | – | – | – | – | – | – |
| CNC(=O)/C=C/c1ccc(O)cc1 [Compound 137, N-Methyl-4-hydroxycinnamamide] | – | – | – | – | – | – | 1064.1 ± 99.3 | 1121.1 ± 52.1 | little or no effect on exoS promoter activity | 0.92 ± 0.05 | – | – | – | – |
| O=C(O)/C=C/c1ccc(F)cc1 [Compound 110, trans-4-Fluorocinnamic acid] | 63.4 ± 8.0 | 183.8 ± 19.2 | inactive | – | – | – | 279.2 ± 5.3 | 152.4 ± 0.7 | – | – | – | – | – | – |
| NC(=O)/C=C/c1ccc(O)cc1 [Compound 102, trans-4-Hydroxycinnamaide] | 21.1 ± 1.2 | 60.8 ± 10.6 | did not show any inhibitory activity | 100 µM | – | – | 1134.0 ± 36.7 | 766.4 ± 94.8 | – | – | – | – | – | – |
| NC(=O)/C=C/c1ccc(Cl)cc1 [Compound 109, trans-4-Chlorocinnamide] | 35.7 ± 6.3 | 81.5 ± 3.8 | – | – | – | – | 172.9 ± 20.5 | 90.6 ± 12.0 | – | – | – | – | – | – |
| O=C1c2ccccc2C(=O)N1C/C=C/c1ccc(O)cc1 [Compound 116, N-(para-Coumaryl)phthalimide] | 24.3 ± 1.5 | 39.3 ± 3.5 | showed inhibitory effect; also recorded: moderated inhibitory activity | 100 µM | 27.0 ± 2.1 | – | 889.1 ± 61.8 | 1466.4 ± 17.8 | – | – | – | – | – | – |
